According to patent US6914045B2, “Glycopeptide antibiotics” (Wyeth Holdings Corporation, priority 2001, dated 2005):
≈ marks a conversion by molar mass, not a printed value.

Experiments:
[1] = test system: Enterococcus sp.; assay: in vitro antibacterial evaluation, MIC by broth dilution; assay type: cell-based; settings: broth dilution, 18 hours at 35° C.
In short: (§1)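 Inoculum 5×10^5 CFU/mL; concentrations 64 to 0.06 μg/mL; MIC defined as lowest inhibitory level. Conducted by broth dilution under NCCLS guidelines.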

[2] = test system: Staphylococcus sp.; assay: as above; assay type: cell-based; settings: broth dilution, 18 hours at 35° C.
In short: as §1

[3] = test system: Streptococcus sp.; assay: as above; assay type: cell-based; settings: broth dilution, 18 hours at 35° C.
In short: as §1

[4] = anatomic pathology (histopathology of heart and kidney) in mice; assay type: in vivo; settings: CD-1 mice, 20 mg/kg intravenously daily for 9 days, necropsy day 10, microscopic histopathology
Description: Samples of tissues from necropsied mice were formalin-fixed, paraffin-embedded, sectioned, stained with hematoxylin and eosin, and examined microscopically. Histopathologic findings were recorded. These findings were subjectively graded on a scale corresponding to slight, mild, moderate, marked and severe as compared to untreated controls.

[5] = test system: Escherichia coli; assay: in vitro antibacterial evaluation, MIC by broth dilution; assay type: cell-based; settings: 18 hours at 35° C.
In short: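 Broth dilution in Muller-Hinton II medium per NCCLS standard M7-A2, with an inoculum of 5×10^5 CFU/mL and antibiotic tested over 64-0.06 μg/mL. MIC was taken as the lowest concentration inhibiting visible growth.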

In the case of `CC(c1ccccc1)C1NC(=O)CNC(=O)C(CO)NC(=O)C(C(O)C2CN(Cc3ccccc3)C(=N)N2C2OC(CO)C(O)C(O)C2O)NC(=O)C(C(O)C2CNC(=N)N2)NC(=O)C(Cc2ccc(OC3OC(CO)C(OC4OC(CO)C(O)C(O)C4O)C(O)C3O)cc2)NC1=O` (stereo not drawn) [Example 59, Cyclo[glycyl-β-methylphenylalanyl-O-(4-O-hexopyranosylhexopyranosyl)tyrosyl-(2-iminoimidazolidin-4-yl)seryl-3-[1-benzyl-3-hexopyranosyl-2-iminoimidazolidin-4-yl]serylseryl]], the “MIC Enterococcus avium (GC 4558)” value ([1]; Enterococcus avium (GC 4558)) was 128 µg/mL (≈ 92.4 µM), the “MIC Enterococcus faecalis (ATCC 29212)” value ([1]; Enterococcus faecalis (ATCC 29212)) was >128 µg/mL and the “MIC Enterococcus faecalis (GC 4552)” value ([1]; Enterococcus faecalis (GC 4552)) was >128 µg/mL. For the same molecule, the “MIC Enterococcus faecalis (GC 4553)” value ([1]; Enterococcus faecalis (GC 4553)) was >128 µg/mL, the “MIC Enterococcus faecalis (GC 4554)” value ([1]; Enterococcus faecalis (GC 4554)) was >128 µg/mL and the “MIC Enterococcus faecalis (GC 6189)” value ([1]; Enterococcus faecalis (GC 6189)) was >128 µg/mL. The “MIC Enterococcus faecium (GC 2243)” value ([1]; Enterococcus faecium (GC 2243)) was >128 µg/mL, the “MIC Enterococcus faecium (GC 4556)” value ([1]; Enterococcus faecium (GC 4556)) was >128 µg/mL and the “MIC Enterococcus faecium (GC 4557)” value ([1]; Enterococcus faecium (GC 4557)) was 128 µg/mL (≈ 92.4 µM). The “MIC Enterococcus avium (GC 4558)” value [1] was 128 µg/mL (≈ 92.4 µM), the “MIC Enterococcus faecalis (ATCC 29212)” value [1] was >128 µg/mL and the “MIC Enterococcus faecalis (GC 2242)” value [1] was >128 µg/mL. The “MIC Enterococcus faecalis (GC 2691)” value [1] was >128 µg/mL, the “MIC Enterococcus faecalis (GC 3059)” value [1] was >128 µg/mL and the “MIC Enterococcus faecalis (GC 4552)” value [1] was >128 µg/mL. The “MIC Enterococcus faecalis (GC 4553)” value [1] was >128 µg/mL, the “MIC Enterococcus faecalis (GC 4554)” value [1] was >128 µg/mL and the “MIC Enterococcus faecalis (GC 6189)” value [1] was >128 µg/mL. The “MIC Enterococcus faecium (GC 2243)” value [1] was >128 µg/mL, the “MIC Enterococcus faecium (GC 4556)” value [1] was >128 µg/mL and the “MIC Enterococcus faecium (GC 4557)” value [1] was 128 µg/mL (≈ 92.4 µM). For the same molecule, the “MIC Enterococcus faecalis (GC 2242)” value ([1]; strain GC 2242) was >128 µg/mL, the “MIC Enterococcus faecalis (GC 2691)” value ([1]; strain GC 2691) was >128 µg/mL and the “MIC Enterococcus faecalis (GC 3059)” value ([1]; strain GC 3059) was >128 µg/mL. For the same molecule, the “MIC Staphylococcus aureus (ATCC 29213)” value ([2]; strain ATCC 29213) was >128 µg/mL, the “MIC Staphylococcus aureus (GC 1131)” value ([2]; strain GC 1131) was >128 µg/mL and the “MIC Staphylococcus aureus (GC 3051)” value ([2]; strain GC 3051) was >128 µg/mL. The “MIC Staphylococcus aureus (GC 3053)” value ([2]; strain GC 3053) was >128 µg/mL, the “MIC Staphylococcus aureus (GC 4541)” value ([2]; strain GC 4541) was >128 µg/mL and the “MIC Staphylococcus aureus (GC 4542)” value ([2]; strain GC 4542) was >128 µg/mL. The “MIC Staphylococcus aureus-SMITH (GC 4543)” value ([2]; strain GC 4543) was >128 µg/mL, the “MIC Staphylococcus aureus (GC 4544)” value ([2]; strain GC 4544) was >128 µg/mL and the “MIC Staphylococcus aureus (GC 4545)” value ([2]; strain GC 4545) was >128 µg/mL. For the same molecule, the “MIC Staphylococcus haemolyticus (GC 4546)” value ([2]; strain GC 4546) was >128 µg/mL, the “MIC Coagulase Negative Staphylococcus (GC 4547)” value ([2]; strain GC 4547) was >128 µg/mL and the “MIC Coagulase Negative Staphylococcus (GC 4548)” value ([2]; strain GC 4548) was >128 µg/mL. For the same molecule, the “MIC Coagulase Negative Staphylococcus (GC 4549)” value ([2]; strain GC 4549) was >128 µg/mL, the “MIC Coagulase Negative Staphylococcus (GC 4551)” value ([2]; strain GC 4551) was >128 µg/mL and the “MIC Coagulase Negative Staphylococcus (GC 6257)” value ([2]; strain GC 6257) was >128 µg/mL. For the same molecule, the “MIC Streptococcus agalactiae (GC 4564)” value [3] was >128 µg/mL, the “MIC Streptococcus pneumoniae (ATCC 6301)” value [3] was 128 µg/mL (≈ 92.4 µM) and the “MIC Streptococcus pneumoniae (GC 1894)” value [3] was 64 µg/mL (≈ 46.2 µM). The “MIC Streptococcus pneumoniae (GC 4565)” value [3] was 128 µg/mL (≈ 92.4 µM), the “MIC Streptococcus pyogenes (GC 4563)” value [3] was >128 µg/mL and the “MIC Streptococcus pneumoniae (ATCC 6301)” value ([3]; strain ATCC 6301) was 128 µg/mL (≈ 92.4 µM). For the same molecule, the “MIC Streptococcus pneumoniae (GC 1894)” value ([3]; strain GC 1894) was 64 µg/mL (≈ 46.2 µM), the “MIC Streptococcus pyogenes (GC 4563)” value ([3]; strain GC 4563) was >128 µg/mL and the “MIC Streptococcus agalactiae (GC 4564)” value ([3]; strain GC 4564) was >128 µg/mL. The “MIC Streptococcus pneumoniae (GC 4565)” value ([3]; strain GC 4565) was 128 µg/mL (≈ 92.4 µM), the “Anatomical Pathology (Day 10), Heart” value [4] was 0 and the “Anatomical Pathology (Day 10), Kidney” value [4] was 0. The “MIC Escherichia coli (ATCC 25922)” value [5] was >128 µg/mL, the “MIC Escherichia coli (GC 4559)” value [5] was >128 µg/mL and the “MIC Escherichia coli (GC 4560)” value [5] was >128 µg/mL.
